According to the supplement of paper PMC10307832:

Legend:
Experiment in all cases: relative viability (nuclei count vs DMSO), 5 days (fraction); higher = more cells survive
[1] = compound: CC(C)N(CCCNC(=O)Nc1ccc(C(C)(C)C)cc1)C[C@H]1O[C@@H](n2ccc3c(N)ncnc32)[C@H](O)[C@@H]1O + Nc1ncn([C@H]2C[C@H](O)[C@@H](CO)O2)c(=O)n1 [Decitabine] (partner 2 µM)
Method in brief: (§1)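 Relative viability divides the nuclei count in treated wells by that in vehicle wells. Lung cancer cell lines were seeded in 1536-well plates, dosed by pin tool the next day, and fixed and stained after 5 days in one step with final 0.05% Triton X-100, 1% formaldehyde and 1 ug/ml Hoechst. Dosing was a single drug or a fixed anchor-drug dose plus five library-drug doses (not always all listed) in √10 steps, and values are medians of duplicate plates imaged at 4×.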

Shikonin + Vorinostat = compound: CC(C)=CC[C@@H](O)C1=CC(=O)c2c(O)ccc(O)c2C1=O [Shikonin] + O=C(CCCCCCC(=O)Nc1ccccc1)NO [Vorinostat] (partner 1 µM)
Method in brief: as §1

[2] = compound: CC(C)N(CCCNC(=O)Nc1ccc(C(C)(C)C)cc1)C[C@H]1O[C@@H](n2ccc3c(N)ncnc32)[C@H](O)[C@@H]1O + O=C(CCCCCCC(=O)Nc1ccccc1)NO [Vorinostat] (partner 1 µM)
Method in brief: as §1

[3] = compound: CC(C)N(CCCNC(=O)Nc1ccc(C(C)(C)C)cc1)C[C@H]1O[C@@H](n2ccc3c(N)ncnc32)[C@H](O)[C@@H]1O + Cc1nc(Nc2ncc(C(=O)Nc3c(C)cccc3Cl)s2)cc(N2CCN(CCO)CC2)n1 [Dasatinib] (partner 0.075 µM)
Method in brief: as §1

Cell Line	relative viability ([1]; first compound 0.08 µM)	relative viability ([1]; first compound 0.253 µM)	relative viability ([1]; first compound 0.8 µM)	relative viability ([1]; first compound 2.53 µM)	relative viability ([1]; first compound 8 µM)	relative viability (Shikonin + Vorinostat; first compound 0.01 µM)	relative viability (Shikonin + Vorinostat; first compound 0.3162 µM)	relative viability (Shikonin + Vorinostat; first compound 1 µM)	relative viability ([2]; first compound 0.08 µM)	relative viability ([2]; first compound 0.253 µM)	relative viability ([2]; first compound 0.8 µM)	relative viability ([2]; first compound 2.53 µM)	relative viability ([2]; first compound 8 µM)	relative viability ([3]; first compound 0.08 µM)	relative viability ([3]; first compound 0.253 µM)	relative viability ([3]; first compound 0.8 µM)	relative viability ([3]; first compound 2.53 µM)	relative viability ([3]; first compound 8 µM)	relative viability (Shikonin + Vorinostat; first compound 0.1 µM)
NCI-H1648	0.494	0.464	0.446	0.398	0.548	0.351	0.672	0.509	0.466	0.4	0.407	0.481	0.64						
SK-MES-1	0.436	0.377	0.36	0.384	0.377	1.13	1.12	1.26	1.04	1.13	0.867	1.1	1.06	0.348	0.355	0.356	0.475	0.316	1.33
NCI-H520	0.531	0.469	0.405	0.471	0.492	0.8	0.717	0.681	0.849	0.711	0.801	0.753	0.843	0.186	0.145	0.151	0.293	0.229	0.718
HCC-366	0.359	0.335	0.317	0.294	0.352	0.367	0.323	0.484	0.439	0.303	0.182	0.357	0.291	0.608	0.647	0.442	0.587	0.536	0.425
201T	0.841	0.889		0.876	0.844	1.02	1.02	1	0.984	0.975		0.911	0.931	0.562	0.548	0.505	0.565	0.593	1.03
HCC-827	0.322	0.325	0.315	0.304	0.38	0.831	1.06	0.855	0.862	0.903	0.579	0.902	0.875	0.286	0.44	0.355	0.311	0.423	0.908
NCI-H661	0.521	0.469	0.542	0.577	0.623	0.837	0.812	0.736	0.77	0.834	0.812	0.809	0.785	0.875	0.787	0.892	0.885	0.821	0.833
NCI-H2085	0.55	0.486	0.561	0.542	0.546	0.78	0.775	0.824	0.769	0.667	0.813	0.887	0.744	0.248	0.218	0.288	0.232	0.26	0.917
NCI-H647	0.419	0.374	0.363	0.336	0.392	0.54	0.72	0.513	0.415	0.549	0.472	0.598	0.518	0.183	0.15		0.205	0.212	0.624
SW 1573	0.464		0.636	0.512	0.543	0.739	0.536	0.306	0.596	0.666	0.648	0.893	0.886	0.475	0.463	0.579	0.704	0.474	0.94
A-427	0.556	0.535	0.568	0.541	0.568	0.862	0.93	0.931	0.839	0.912	0.875	0.901	0.9	0.671	0.644	0.641	0.61	0.594	0.938
NCI-H460	0.484	0.488	0.455	0.435	0.414	0.919	0.959	0.828	0.719	0.727	0.746	0.701	0.734	0.41	0.531	0.453	0.504	0.456	0.946
NCI-H1792	0.527		0.56	0.529	0.607									0.768	0.785	0.871	0.71	0.783	
SK-LU-1	0.626	0.642	0.657	0.702	0.568	0.844	0.853	0.704	0.742	0.775	0.87	0.87	0.736	0.18	0.184	0.19	0.184	0.207	0.878
EMC-BAC-2	0.939	1.02	1.07	1.09	0.96	0.431	0.439	0.659	0.465	0.416	0.461	0.409	0.401	0.349	0.36	0.297	0.359	0.37	0.465
LK-2	0.308	0.293	0.388	0.325	0.22	0.279	0.214	0.316	0.325	0.282	0.391	0.315	0.213	0.447	0.294	0.267	0.368	0.302	0.309
NCI-H2228						0.807	0.53	0.785	0.593	0.703	0.543	0.556	0.702	0.54	0.457	0.502	0.416	0.613	0.507
NCI-H322M	0.698	0.695	0.723	0.689	0.641	0.672	0.953	0.978	0.891	0.899	0.805	0.842	0.912	0.278	0.266	0.264	0.24	0.284	0.911
NCI-H1975	0.367	0.44	0.273	0.354	0.376	0.687	0.801	0.64	0.748	0.687	0.701	0.658	0.709	0.382	0.337	0.241	0.341	0.288	0.785

Cell Line	relative viability ([1]; first compound 0.08 µM)	relative viability ([1]; first compound 0.253 µM)	relative viability ([1]; first compound 0.8 µM)	relative viability ([1]; first compound 2.53 µM)	relative viability ([1]; first compound 8 µM)	relative viability (Shikonin + Vorinostat; first compound 0.01 µM)	relative viability (Shikonin + Vorinostat; first compound 0.3162 µM)	relative viability (Shikonin + Vorinostat; first compound 1 µM)	relative viability ([2]; first compound 0.08 µM)	relative viability ([2]; first compound 0.253 µM)	relative viability ([2]; first compound 0.8 µM)	relative viability ([2]; first compound 2.53 µM)	relative viability ([2]; first compound 8 µM)	relative viability ([3]; first compound 0.08 µM)	relative viability ([3]; first compound 0.253 µM)	relative viability ([3]; first compound 0.8 µM)	relative viability ([3]; first compound 2.53 µM)	relative viability ([3]; first compound 8 µM)	relative viability (Shikonin + Vorinostat; first compound 0.1 µM)
NCI-H1944	0.451	0.438	0.471	0.394	0.423	0.521	0.673	0.55	0.508	0.48	0.484	0.637	0.546	0.197	0.197	0.257	0.243	0.222	0.521
LU99A	0.802	0.92	0.895	0.919	0.991	0.459	0.485	0.494	0.454	0.342	0.483	0.539	0.409	0.477	0.381	0.679	0.597	0.479	0.617
NCI-H1993	0.482		0.564	0.6	0.559	0.72	1.02	0.806	0.663		0.661	0.748	0.818	0.476			0.768	0.718	0.773
NCI-H2405	0.723	0.748	0.741	0.745	0.708	1.11	1.03	1.11	1.06	0.969	0.928	1.07	0.92	0.193	0.199	0.242	0.2	0.241	1.12
NCI-H2023	0.256	0.25	0.242	0.205	0.191	0.645	0.703	0.736	0.605	0.608	0.576	0.584	0.45	0.503	0.668	0.602	0.662	0.55	0.772
HCC-15	0.655	0.592	0.65	0.646	0.544	0.986	1.01	0.955	0.92	0.806	0.888	0.818	0.793	0.596	0.684	0.574	0.581	0.591	0.841
HCC-44	0.979	1.01	0.714	0.966	0.915	1.14	1.13	1.03	1.1	1.26	1.04	1.1	1.01						1.12
COR-L23	0.46	0.33	0.467	0.48	0.456	0.413	0.471	0.308	0.378	0.431	0.462	0.5	0.374	0.499	0.5	0.457	0.474	0.442	0.449
HCC-78	0.783	0.667	0.667	0.707	0.777	0.505	0.514	0.415	0.41	0.391	0.4	0.42	0.488	0.485	0.311	0.466	0.308	0.32	0.472
PC-14	0.191	0.246	0.215	0.231	0.206	0.807	0.77	0.484	0.71	0.722	0.624	0.702	0.561	0.223	0.292	0.233	0.247	0.275	0.833
NCI-H2126	0.568	0.591	0.557	0.551	0.508	0.806	0.841	0.819	0.672	0.702	0.825	0.721	0.711	0.616	0.582	0.603	0.601	0.554	0.757
BEN	0.602	0.596	0.739	0.717	0.678	0.567	0.606	0.617	0.597	0.539	0.576	0.606	0.572	0.29	0.347	0.312	0.314	0.312	0.619
LCLC-103H	0.688	0.719	0.666	0.716	0.68	0.791	0.801	0.889	0.717	0.692	0.585	0.701	0.748	0.435	0.424	0.449	0.428	0.443	0.877
EKVX	0.342	0.339	0.327	0.36	0.351	0.634	0.831	0.925	0.64	0.772	0.705	0.62	0.705	0.571	0.502	0.509	0.517	0.524	0.711
NCI-H1563														0.447	0.42	0.488	0.434	0.424	
A549	0.278	0.292	0.291	0.215	0.189														
NCI-H1623														0.562	0.563	0.571	0.537	0.521	
IA-LM						1.08	1.07	1	0.88	0.761	0.909	0.968	0.96						0.512
CAL-12T						0.842	0.832	0.583	0.788	0.76	0.965	0.644	0.578	0.405	0.398	0.386	0.453	0.402	0.802
